According to patent publication US20210275443A1, “SUSTAINED-RELEASE INJECTION PREPARATION CONTAINING DONEPEZIL DERIVATIVE” (NANJING NORATECH PHARMACEUTICAL CO., LTD., priority 2018, published 2021):

Conditions: after i.m. administration of the suspension
Experimental: There were 3 animals in each group. […] The whole blood was centrifuged to collect plasma, which was transferred to a 96-well plate, and stored at −20° C. for detection by LC-MS/MS. The drug concentration at each sampling time was determined by measuring the standard curve of reference donepezil in plasma.

For `CCCCCCC(=O)OC1=C(CC2CCN(Cc3ccccc3)CC2)Cc2cc(OC)c(OC)cc21` [donepezil heptanoate, Donepezil Heptanoate], the “Metabolism of the prodrug into donepezil after administration” value was “rapidly metabolized into donepezil”.
